Measurements published in DBAASP.
≈ marks a conversion by molar mass, not a printed value.

How the values were obtained:
Test in all cases: ≥ marks a high value that may be exact or a test limit, other limits are often not marked, values filed in µg/mL are converted to µM
Escherichia coli K-12 = tested on: Escherichia coli K-12
Klebsiella pneumoniae = tested on: Klebsiella pneumoniae
[1] = tested on: Pseudomonas aeruginosa PAO1
[2] = tested on: Staphylococcus aureus NCTC 8325-4
Bacillus subtilis = tested on: Bacillus subtilis
[3] = tested on: Candida albicans ATCC 2002
[4] = tested on: Candida albicans ATCC 90028
Enterobacter cloacae = tested on: Enterobacter cloacae
Escherichia coli = tested on: Escherichia coli
[5] = tested on: Pseudomonas aeruginosa ATCC 27853
Pseudomonas aeruginosa = tested on: Pseudomonas aeruginosa
[6] = tested on: Salmonella enterica subsp. enterica serovar Typhi
[7] = tested on: Staphylococcus aureus ATCC 25923
[8] = tested on: Staphylococcus aureus ATCC 2592
Staphylococcus aureus = tested on: Staphylococcus aureus
Bacillus anthracis = tested on: Bacillus anthracis
Bacillus cereus = tested on: Bacillus cereus
[9] = tested on: Escherichia coli ATCC 25922
Enterococcus faecalis = tested on: Enterococcus faecalis
Leuconostoc lactis = tested on: Leuconostoc lactis
Listeria innocua = tested on: Listeria innocua
Micrococcus luteus = tested on: Micrococcus luteus
Pasteurella multocida = tested on: Pasteurella multocida
[10] = tested on: Staphylococcus aureus ATCC 29213
[11] = tested on: Staphylococcus epidermidis
Streptococcus uberis = tested on: Streptococcus uberis
[12] = tested on: Candida albicans NCPF 1467
[13] = tested on: Escherichia coli NCTC 10418
[14] = tested on: Staphylococcus aureus NCTC 10788
Micrococcus luteus A270 = tested on: Micrococcus luteus A270
[15] = tested on: Salmonella enterica subsp. enterica serovar Enteritidis

SMILES | MIC (Bacillus subtilis) | MIC [4] | MIC (Enterobacter cloacae) | MIC (Escherichia coli) | MIC [5] | MIC (Pseudomonas aeruginosa) | MIC [6] | MIC [7] | MIC (Staphylococcus aureus) | MIC (Listeria innocua) | MIC (Bacillus cereus) | further results
CC(C)C[C@H](NC(=O)[C@H](CC(C)C)NC(=O)[C@H](CCCCN)NC(=O)[C@H](CCCCN)NC(=O)[C@H](CC(C)C)NC(=O)[C@H](CC(C)C)NC(=O)[C@H](CCCCN)NC(=O)[C@H](CCCCN)NC(=O)[C@@H](N)CC(C)C)C(=O)N[C@@H](CCCCN)C(N)=O [LKKLLKKLLK] | – | – | – | – | – | – | – | – | – | – | – | MIC (Escherichia coli K-12): 31.3 µM (≈ 38.3 µg/mL); MIC (Klebsiella pneumoniae): > 500 µM; MIC [1]: 62.5 µM (≈ 76.5 µg/mL); MIC [2]: ≥ 500 µM
CC(C)C[C@H](NC(=O)[C@H](CCCCN)NC(=O)[C@H](Cc1ccccc1)NC(=O)[C@H](CC(C)C)NC(=O)[C@@H](NC(=O)[C@@H]1CCCN1C(=O)[C@@H](N)CC(C)C)C(C)C)C(=O)N[C@@H](C)C(=O)N[C@@H](CO)C(=O)N[C@@H](CCCCN)C(=O)N[C@H](C(=O)N[C@@H](Cc1ccccc1)C(=O)N1CCC[C@H]1C(=O)N[C@@H](C)C(=O)N[C@H](C(=O)N[C@@H](Cc1ccccc1)C(=O)N[C@@H](CO)C(=O)N[C@@H](CO)C(=O)N[C@@H](CC(C)C)C(=O)N[C@@H](CCCCN)C(=O)O)C(C)C)C(C)C [LPVLFKLASKVFPAVFSSLK] | – | – | – | 117 µM (≈ 256 µg/mL) | – | – | – | – | 58.4 µM (≈ 128 µg/mL) | – | 29.2 µM (≈ 64 µg/mL) | MIC (Bacillus anthracis): ≥ 58.4 µM
CC[C@H](C)[C@H](NC(=O)[C@@H](NC(=O)[C@@H]1CCCN1C(=O)[C@H](C)NC(=O)[C@@H](NC(=O)[C@H](Cc1cnc[nH]1)NC(=O)[C@@H]1CCCN1C(=O)[C@H](CC(C)C)NC(=O)[C@H](CC(C)C)NC(=O)[C@H](Cc1cnc[nH]1)NC(=O)[C@H](CCCCN)NC(=O)[C@H](C)NC(=O)[C@@H](NC(=O)[C@H](CO)NC(=O)CNC(=O)[C@H](CC(C)C)NC(=O)[C@@H](NC(=O)[C@H](CO)NC(=O)[C@H](Cc1ccccc1)NC(=O)[C@H](CC(C)C)NC(=O)CN)C(C)C)C(C)C)C(C)C)[C@@H](C)CC)C(=O)N[C@@H](C)C(=O)N[C@@H](CCC(=O)O)C(=O)N[C@@H](CCCCN)C(=O)N[C@@H](CC(C)C)C(N)=O [GLFSVLGSVAKHLLPHVAPIIAEKL] | – | – | ≥ 38.3 µM | > 38.3 µM | – | > 38.3 µM | – | 19.2 µM (≈ 50 µg/mL) | – | 9.58 µM (≈ 25 µg/mL) | ≥ 38.3 µM | MIC (Enterococcus faecalis): ≥ 38.3 µM; MIC (Leuconostoc lactis): 1.15 µM (≈ 3 µg/mL); MIC (Micrococcus luteus): 4.6 µM (≈ 12 µg/mL); MIC (Pasteurella multocida): 9.58 µM (≈ 25 µg/mL); MIC [10]: 4.6 µM (≈ 12 µg/mL); MIC [11]: 4.6 µM (≈ 12 µg/mL); MIC (Streptococcus uberis): 9.58 µM (≈ 25 µg/mL)
CC[C@H](C)[C@H](NC(=O)[C@H](C)NC(=O)[C@H](CO)NC(=O)[C@@H]1CCCN1C(=O)[C@@H](NC(=O)[C@H](CC(C)C)NC(=O)[C@H](CO)NC(=O)[C@H](Cc1ccccc1)NC(=O)[C@H](CC(C)C)NC(=O)[C@@H](N)Cc1ccccc1)[C@@H](C)CC)C(=O)N[C@@H](C)C(=O)NCC(=O)N[C@@H](CC(C)C)C(=O)N[C@H](C(=O)N[C@@H](CO)C(=O)N[C@@H](C)C(=O)N[C@H](C(=O)N[C@@H](CCCN=C(N)N)C(=O)N[C@@H](CC(N)=O)C(N)=O)[C@@H](C)CC)C(C)C [FLFSLIPSAIAGLVSAIRN] | – | – | – | – | – | – | – | – | – | – | – | MIC [12]: 16.1 µM (≈ 32 µg/mL); MIC [13]: ≥ 257 µM; MIC [14]: 8.04 µM (≈ 16 µg/mL)
CC[C@H](C)[C@H](NC(=O)[C@H](CC(C)C)NC(=O)[C@H](CCCCN)NC(=O)[C@H](CCSC)NC(=O)[C@@H](NC(=O)[C@H](C)NC(=O)[C@H](C)NC(=O)[C@H](CCCN=C(N)N)NC(=O)[C@H](CCCCN)NC(=O)[C@H](Cc1ccccc1)NC(=O)[C@H](Cc1ccccc1)NC(=O)[C@H](CC(C)C)NC(=O)[C@@H](NC(=O)[C@H](C)NC(=O)CNC(=O)[C@@H](NC(=O)[C@H](CO)NC(=O)[C@@H]1CCCN1C(=O)[C@@H](NC(=O)[C@@H](N)CO)C(C)C)C(C)C)C(C)C)C(C)C)C(=O)O [SVPSVGAVLFFKRAAVMKLI] | – | – | – | > 120 µM | – | – | – | – | > 120 µM | – | ≥ 120 µM | MIC (Bacillus anthracis): ≥ 120 µM
CC(C)C[C@H](NC(=O)[C@H](CO)NC(=O)[C@H](Cc1cnc[nH]1)NC(=O)[C@H](CO)NC(=O)[C@H](CC(C)C)NC(=O)[C@@H](N)CC(C)C)C(=O)O [LLSHSL] | – | – | – | 46.8 µM (≈ 31.3 µg/mL) | – | – | – | – | – | ≥ 187 µM | – | MIC (Micrococcus luteus A270): ≥ 46.8 µM

More lines, main results first:

MIC (Bacillus subtilis) | MIC [4] | MIC (Enterobacter cloacae) | MIC (Escherichia coli) | MIC [5] | MIC (Pseudomonas aeruginosa) | MIC [6] | MIC [7] | MIC (Staphylococcus aureus) | MIC (Listeria innocua) | SMILES | MIC (Bacillus cereus) | further results
≥ 38.7 µM | ≥ 33 µM | 4.12 µM (≈ 8 µg/mL) | 8.25 µM (≈ 16 µg/mL) | 16.5 µM (≈ 32 µg/mL) | 8.25 µM (≈ 16 µg/mL) | 1.03 µM (≈ 2 µg/mL) | 0.516 µM (≈ 0.999 µg/mL) | 8.25 µM (≈ 16 µg/mL) | – | CC(C)C[C@H](NC(=O)[C@H](CCCCN)NC(=O)[C@H](CCCN=C(N)N)NC(=O)[C@H](Cc1ccccc1)NC(=O)[C@H](Cc1ccccc1)NC(=O)[C@H](CCCCN)NC(=O)[C@H](CCCCN)NC(=O)[C@H](Cc1ccccc1)NC(=O)[C@H](CCCN=C(N)N)NC(=O)[C@H](CCCCN)NC(=O)[C@@H](N)C(C)C)C(=O)N[C@@H](CCCCN)C(=O)N[C@@H](CCCCN)C(=O)N[C@@H](CO)C(=O)N[C@H](C(N)=O)C(C)C [VKRFKKFFRKLKKSV] | – | MIC [3]: 9.67 µM (≈ 18.7 µg/mL); MIC [8]: ≥ 51.6 µM
29.1 µM (≈ 64 µg/mL) | 29.1 µM (≈ 64 µg/mL) | ≥ 58.3 µM | 29.1 µM (≈ 64 µg/mL) | 29.1 µM (≈ 64 µg/mL) | 7.29 µM (≈ 16 µg/mL) | 1.82 µM (≈ 4 µg/mL) | 0.911 µM (≈ 2 µg/mL) | 58.3 µM (≈ 128 µg/mL) | – | CC(C)C[C@H](NC(=O)[C@H](CCCCN)NC(=O)[C@H](CCCN=C(N)N)NC(=O)[C@H](Cc1ccccc1)NC(=O)[C@H](Cc1ccccc1)NC(=O)[C@H](CCCCN)NC(=O)[C@H](CCCCN)NC(=O)[C@H](Cc1ccccc1)NC(=O)[C@H](CCCN=C(N)N)NC(=O)[C@H](CCCCN)NC(=O)[C@@H](N)C(C)C)C(=O)N[C@@H](CCCCN)C(=O)N[C@@H](CCCCN)C(=O)N[C@@H](CO)C(=O)N[C@H](C(=O)N[C@@H](CCCCN)C(=O)N[C@@H](CCCCN)C(N)=O)C(C)C [VKRFKKFFRKLKKSVKK] | – | MIC [9]: 3.64 µM (≈ 8 µg/mL)
31 µM (≈ 64 µg/mL) | 31 µM (≈ 64 µg/mL) | 31 µM (≈ 64 µg/mL) | 31 µM (≈ 64 µg/mL) | 31 µM (≈ 64 µg/mL) | 7.74 µM (≈ 16 µg/mL) | 1.93 µM (≈ 4 µg/mL) | 0.967 µM (≈ 2 µg/mL) | 61.9 µM (≈ 128 µg/mL) | – | CC(C)C[C@H](NC(=O)[C@H](CCCCN)NC(=O)[C@H](CCCN=C(N)N)NC(=O)[C@H](Cc1ccccc1)NC(=O)[C@H](Cc1ccccc1)NC(=O)[C@H](CCCCN)NC(=O)[C@H](CCCCN)NC(=O)[C@H](Cc1ccccc1)NC(=O)[C@H](CCCN=C(N)N)NC(=O)[C@H](CCCCN)NC(=O)[C@@H](N)C(C)C)C(=O)N[C@@H](CCCCN)C(=O)N[C@@H](CCCCN)C(=O)N[C@@H](CO)C(=O)N[C@H](C(=O)N[C@@H](CCCCN)C(N)=O)C(C)C [VKRFKKFFRKLKKSVK] | – | MIC [9]: 1.93 µM (≈ 4 µg/mL)
– | – | – | 9 µM (≈ 15.6 µg/mL) | – | – | – | – | – | 1 µM (≈ 1.73 µg/mL) | CC(C)C[C@H](NC(=O)[C@@H](N)Cc1ccccc1)C(=O)N[C@@H](CO)C(=O)N[C@@H](Cc1ccccc1)C(=O)N1CCC[C@H]1C(=O)N[C@H](C(=O)N[C@H](C(=O)N[C@@H](CCCCN)C(=O)N[C@H](C(=O)N[C@@H](Cc1ccc(O)cc1)C(=O)N[C@@H](Cc1ccccc1)C(=O)N1CCC[C@H]1C(=O)N[C@@H](Cc1cnc[nH]1)C(=O)N[C@@H](Cc1ccccc1)C(=O)O)[C@@H](C)O)[C@@H](C)O)[C@@H](C)O [FLSFPTTKTYFPHF] | – | MIC (Micrococcus luteus A270): 5 µM (≈ 8.67 µg/mL); MIC [15]: 9 µM (≈ 15.6 µg/mL)
